What follows are molecules tested against T1, Serum Glucocorticoid-regulated Kinase-1 (SGK-1) (Homo sapiens, UniProt O00141, S422D) (assay: SGK-1 Enzyme Assay (SGK1e), substrate phosphorylation, scintillation proximity). Conditions: truncated human SGK-1 (aa 61-431, S422D), 10 μM ATP, Crosstide substrate.
T1 construct: a truncated form of the human enzyme that included amino acids 61-431; 6xHis (N); made in house
T1 sequence (O00141 61-431 S422D): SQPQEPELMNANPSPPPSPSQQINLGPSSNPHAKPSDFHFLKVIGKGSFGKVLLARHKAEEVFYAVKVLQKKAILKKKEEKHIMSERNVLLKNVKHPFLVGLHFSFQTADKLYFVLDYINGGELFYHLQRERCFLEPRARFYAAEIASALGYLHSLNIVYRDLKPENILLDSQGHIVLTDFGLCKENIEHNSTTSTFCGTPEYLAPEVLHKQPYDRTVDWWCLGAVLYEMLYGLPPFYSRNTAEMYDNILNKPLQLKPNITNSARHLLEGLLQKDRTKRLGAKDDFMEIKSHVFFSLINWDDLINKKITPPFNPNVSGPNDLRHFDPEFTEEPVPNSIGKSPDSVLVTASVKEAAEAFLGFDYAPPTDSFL
Assay type: biochemical
Description: Compounds of the present invention were tested for Serum Glucocorticoid-regulated Kinase-1 (SGK-1) protein serine/threonine kinase inhibitory activity in substrate phosphorylation assays using enzyme purified from a baculovirus expression vector system. The recombinant baculovirus was made to express the intracellular domain of SGK-1 (GenBank accession number MD41091). The virus expressed a truncated form of the human enzyme that included amino acids 61-431. Serine422 was replaced with Aspartic acid to activate the enzyme, and 6 Histidine residues were added at the amino terminus to facilitate purification. The protein was purified using Ni-NTA agarose affinity chromatography. The peptide substrate was an N-terminal biotinylated sunthetic peptide named Crosstide (biotin-Ahx-GRPRTSSFAEG-OH), corresponding to the sequence in GSK3 surrounding the serine phosphorylated by MAPKAP Kinase-1/Rsk and p70 S6 Kinase.
The method measures the ability of the isolated enzyme to catalyze the transfer of the γ-phosphate from ATP onto serine/threonine residues in the biotinylated Crosstide. Reactions were performed in 96-well polystyrene round-bottom plates in a final volume of 30 uL. Reaction mixtures contained 62.5 mM HEPES (pH 7.4), 10 mM MgCl2, 0.1 mM EDTA, 0.0024% TWEEN-20, and 1 mM DTT (added fresh daily), 10 μM ATP, 0.2 μCi [[v-^33P] ATP per reaction, 4 μM Crosstide peptide substrate, and 1 nM SGK1 enzyme. Reactions were initiated by adding the indicated enzyme. The reaction was allowed to proceed for 2 hours, then terminated by the addition of 50 mM EDTA and quantified using a scintillation proximity assay procedure as described (McDonald, O. B., Antonsson, B., Arkinstal, S., Marshall, C. J., and Wood, E. R. (1999) Analytical Biochemistry, 268, 318-329).
Compounds under analysis were dissolved in Me2SO to 1 mM and serially diluted 1 to 3 with Me2SO through eleven columns of a 96 well plate. 1 uL of each concentration was transferred to the corresponding well of the assay plate. This created a final compound concentration range from 0.56 nM to 33.3 uM.
The data for dose responses were plotted as % Control calculated with the data reduction formula 100*(U1-C2)/(C1-C2) versus concentration of compound and fitted to the curve described by:
where Vmax is the upper asymptote and K is the IC50

| IC50 [nM] | SMILES |
| --- | --- |
| < 1000 | O=C(/C=C/c1n[nH]c2ccccc12)Nc1ccc2ncsc2c1 [Example 1, (2E)-N-(1,3-benzothiazol-6-yl)-3-(1H-indazol-3-yl)-2-propenamide] |
| < 1000 | N#Cc1ccccc1NC(=O)/C=C/c1n[nH]c2ccccc12 [Example 3, (2E)-N-(2-cyanophenyl)-3-(1H-indazol-3-yl)-2-propenamide] |
| < 1000 | O=C(/C=C/c1n[nH]c2ccccc12)Nc1cccc(C(=O)c2ccccc2)c1 [Example 12, (2E)-N-(3-benzoylphenyl)-3-(1H-indazol-3-yl)-2-propenamide] |
| < 1000 | COc1cc(NC(=O)/C=C/c2n[nH]c3ccccc23)ccc1OCCN(C(C)C)C(C)C [Example 15, (2E)-N-[4-[2-(diisopropylamino)ethoxy]-3-methoxyphenyl]-3-(1H-indazol-3-yl)-2-propenamide] |
| < 1000 | CCCN(C)CCOc1ccc(NC(=O)/C=C/c2n[nH]c3ccccc23)cc1OC [Example 19, (2E)-3-(1H-indazol-3-yl)-N-(3-methoxy-4-{2-[methyl(propyl)amino]ethoxy}phenyl)-2-propenamide] |
| 1000 to 10000 | CC(C)CNC(=O)/C=C/c1n[nH]c2ccccc12 [Example 24, (2E)-3-(1H-indazol-3-yl)-N-isobutylprop-2-enamide] |
| 1000 to 10000 | CCOC(=O)C1CCN(C(=O)/C=C/c2n[nH]c3ccccc23)CC1 [Example 27, Ethyl 1-[(2E)-3-(1H-indazol-3-yl)prop-2-enoyl]piperidine-4-carboxylate] |
| < 1000 | O=C(/C=C/c1n[nH]c2ccccc12)N1CCC2(CC1)C(=O)NCN2c1ccccc1 [Example 30, 8-[(2E)-3-(1H-indazol-3-yl)prop-2-enoyl]-1-phenyl-1,3,8-triazaspiro[4.5]decan-4-one] |
| < 1000 | O=C(/C=C/c1n[nH]c2ccccc12)Nc1ccc(C(=O)NCCc2cccnc2)cc1 [Example 36, 4-(((2E)-3-(1H-indazol-3-yl)prop-2-enoyl)amino)-N-(2-pyridin-3-ylethyl)benzamide] |
| < 1000 | CCN(Cc1ccncc1)C(=O)c1cccc(NC(=O)/C=C/c2n[nH]c3ccccc23)c1 [Example 41, N-ethyl-3-(((2E)-3-(1H-indazol-3-yl)prop-2-enoyl)amino)-N-(pyridin-4-ylmethyl)benzamide] |

— patent US20080058515A1, “Chemical Compounds” (priority 2003, published 2008)
